Results reported in patent US20090076044A1, “VEGFR INHIBITORS CONTAINING A ZINC BINDING MOIETY” (priority 2007, published 2009).
Like-named read-outs stand apart in the source and are kept apart here.

Experiments:
Type in all cases: biochemical
HDAC = HDAC fluorimetric assay kit (HeLa nuclear extract)
Method: (b) An In Vitro Assay which Determines the Ability of a Test Compound to Inhibit HDAC Enzymatic Activity.
HDAC inhibitors were screened using an HDAC fluorimetric assay kit (AK-500, Biomol, Plymouth Meeting, Pa.). Test compounds were dissolved in dimethylsulphoxide (DMSO) to give a 20 mM working stock concentration. Fluorescence was measured on a WALLAC Victor 2 plate reader and reported as relative fluorescence units (RFU). Data were plotted using GraphPad Prism (v4.0a) and IC50's calculated using a sigmoidal dose response curve fitting algorithm. Each assay was setup as follows: Defrosted all kit components and kept on ice until use. Diluted HeLa nuclear extract 1:29 in Assay Buffer (50 mM Tris/Cl, pH 8.0, 137 mM NaCl, 2.7 mM KCl, 1 mM MgCl2). Prepared dilutions of Trichostatin A (TSA, positive control) and tested compounds in assay buffer (5× of final concentration). Diluted Fluor de Lys™ Substrate in assay buffer to 100 uM (50 fold=2× final). Diluted Fluor de Lys™ developer concentrate 20-fold (e.g. 50 μl plus 950 μl Assay Buffer) in cold assay buffer. Second, diluted the 0.2 mM Trichostatin A 100-fold in the 1× Developer (e.g. 10 μl in 1 ml; final Trichostatin A concentration in the 1× Developer=2 μM; final concentration after addition to HDAC/Substrate reaction=1 μM). Added Assay buffer, diluted trichostatin A or test inhibitor to appropriate wells of the microtiter plate. Added diluted HeLa extract or other HDAC sample to all wells except for negative controls. Allowed diluted Fluor de Lys™ Substrate and the samples in the microtiter plate to equilibrate to assay temperature (e.g. 25 or 37° C. Initiated HDAC reactions by adding diluted substrate (25 μl) to each well and mixing thoroughly. Allowed HDAC reactions to proceed for 1 hour and then stopped them by addition of Fluor de Lys™ Developer (50 μl). Incubated plate at room temperature (25° C.) for 10-15 min. Read samples in a microtiter-plate reading fluorimeter capable of excitation at a wavelength in the range 350-380 nm and detection of emitted light in the range 440-460 nm.

human HER2 = target: T1, human HER2 (Homo sapiens, UniProt P04626); experiment: HER2 enzymatic activity assay
T1 construct: human HER2 amino acids 679-1255; host or cells: Sf9 insect cells (baculovirus)
Method: (d) An In Vitro Assay which Determines the Ability of a Test Compound to Inhibit HER2 Enzymatic Activity.
10 nM HER2 and 0.1 mg/ml polyEY were placed in the reaction buffer and 2 mM MnCl2, 1 μM ATP and 1% DMSO final were added. The reaction mixture was incubated for 2 hours at room temperature.
Purity>90% by SDS PAGE and Coomassie blue staining. MW=91.6 kDa. Specific Activity of 40 U/mg, where one unit of activity is defined as 1 nmol phosphate incorporated into 30 ug/ml Poly (Glu:Tyr)4:1 substrate per minute at 30° C. with a final ATP concentration of 100 μM. Enzyme is in 25 mM Tris-HCl, pH 8.0, 100 mM NaCl, 0.05% Tween-20, 50% glycerol, 10 mM reduced glutathione, and 3 mM DTT.

human VEGFR2 = target: T2, human VEGFR2 (Homo sapiens, UniProt P35968); experiment: VEGFR2/KDR radioisotope kinase assay
T2 construct: kinase domain (amino acids 790 to end) fragment; 6xHis (N); made in house; host or cells: Sf21 insect cells (baculovirus)
Method: (a) An In Vitro Assay which-Determines the Ability of a Test Compound to Inhibit a Receptor Tyrosine Kinase.
The ability of compounds to inhibit receptor kinase (VEGFR2 and PDGFR-beta) activity was assayed using standard radioisotope assay for kinase. […] The proteins were purified using Ni2+/NTA agarose affinity column to purity
>85% as determined by coomassie blue-stained SDS-PAGE gel. For VEGFR2/KDR assay, p33 ATP tracers were incubated with purified recombinant VEGFR2 kinase to monitor the enzyme activity. In this assay, reactions were carried out in the presence of 0.1 mg/ml VEGFR2 kinase and 0.33 mg/ml myelin basic protein. The reaction was carried out at 30° C. for 120 minutes in a final assay condition contained 50 mM Tris-HCl, pH 7.5, 300 mM NaCl, 0.1 mM EGTA, 0.03% Brij 35, 270 mM sucrose, 1 mM benzamidine, 0.2 mM PMSF, 0.1% 2-mercaptoethanol and 100 μM ATP. An equal volume of 25% TCA was added to stop the reaction and precipitate the labeled proteins. Precipitated proteins were trapped onto glass fiber B filterplates and excess unlabeled p33 ATP was washed off. The plates were allowed to air-dry prior to the addition of 30 uL/well of Packard Microscint 20. The amount of incorporated isotope was measured using a Perkin Elmer TopCount plate reader. Different concentrations of compounds were added to reaction to assess the activity of compounds to inhibit VEGFR2 kinase. IC50 was calculated using Prism software with sigmoidal dose-response curve fitting.

[1] = 1 μM ATP, read-out: HER2/ErbB IC50
[2] = 100 μM ATP, read-out: VEGFR2 IC50

T1 sequence (P04626 679-1255): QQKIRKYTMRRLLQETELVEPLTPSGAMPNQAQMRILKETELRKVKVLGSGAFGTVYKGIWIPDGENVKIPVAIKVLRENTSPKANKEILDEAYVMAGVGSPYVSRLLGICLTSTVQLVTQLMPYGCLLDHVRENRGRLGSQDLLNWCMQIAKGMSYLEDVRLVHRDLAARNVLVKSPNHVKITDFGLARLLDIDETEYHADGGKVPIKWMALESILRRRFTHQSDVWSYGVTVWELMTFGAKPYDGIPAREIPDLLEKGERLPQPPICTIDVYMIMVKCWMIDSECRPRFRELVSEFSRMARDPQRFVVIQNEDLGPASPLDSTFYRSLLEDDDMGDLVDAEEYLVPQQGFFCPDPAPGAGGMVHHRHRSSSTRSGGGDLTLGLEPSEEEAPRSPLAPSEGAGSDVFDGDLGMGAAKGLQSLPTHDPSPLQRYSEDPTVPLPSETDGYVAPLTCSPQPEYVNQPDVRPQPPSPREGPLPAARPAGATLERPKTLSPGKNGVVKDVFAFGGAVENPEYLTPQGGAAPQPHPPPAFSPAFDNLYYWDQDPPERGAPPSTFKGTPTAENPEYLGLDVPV
T2 sequence (P35968 790-1356 limits assumed): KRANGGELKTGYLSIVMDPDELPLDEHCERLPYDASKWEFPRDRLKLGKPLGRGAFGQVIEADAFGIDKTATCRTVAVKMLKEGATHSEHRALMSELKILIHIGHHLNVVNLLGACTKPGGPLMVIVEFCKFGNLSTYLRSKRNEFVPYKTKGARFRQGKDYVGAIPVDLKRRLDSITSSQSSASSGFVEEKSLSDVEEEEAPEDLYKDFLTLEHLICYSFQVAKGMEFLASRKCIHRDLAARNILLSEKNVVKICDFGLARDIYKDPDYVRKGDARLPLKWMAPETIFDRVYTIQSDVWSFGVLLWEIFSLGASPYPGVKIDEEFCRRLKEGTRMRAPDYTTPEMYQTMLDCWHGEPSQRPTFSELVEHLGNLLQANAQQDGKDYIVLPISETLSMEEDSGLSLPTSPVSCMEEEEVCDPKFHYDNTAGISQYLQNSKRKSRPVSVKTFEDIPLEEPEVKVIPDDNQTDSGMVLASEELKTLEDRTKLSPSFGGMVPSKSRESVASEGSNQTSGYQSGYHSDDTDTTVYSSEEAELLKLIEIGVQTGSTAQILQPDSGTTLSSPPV

Row | SMILES | IC50 (HDAC) [nM] | IC50 (human HER2; [1]) [nM] | IC50 (human VEGFR2; [2]) [nM] | IC50 (human HER2) [nM] | IC50 (human VEGFR2) [nM]
1 | COc1cc2ncnc(Nc3ccc4occc4c3)c2cc1OCCCCCCC(=O)NO [Compound 2, 7-(4-(benzofuran-5-ylamino)-7-methoxyquinazolin-6-yloxy)-N-hydroxyheptanamide] | < 100 | < 100 | 1000 to 10000 |  | 
2 | COc1cc2c(Oc3ccc4[nH]c(C)cc4c3F)ncnc2cc1OCCCCCC(=O)NO [Compound 10, 6-(4-(4-fluoro-2-methyl-1H-indol-5-yloxy)-6-methoxyquinazolin-7-yloxy)-N-hydroxyhexanamide] | 100 to 1000 | 100 to 1000 | < 100 |  | 
3 | COc1cc2c(Oc3ccc4[nH]c(C)cc4c3F)ncnc2cc1OCCCCCCC(=O)NO [Compound 11, 7-(4-(4-fluoro-2-methyl-1H-indol-5-yloxy)-6-methoxyquinazolin-7-yloxy)-N-hydroxyheptanamide] | 100 to 1000 |  |  | 1000 to 10000 | < 100
4 | COc1cc2c(Nc3ccc4[nH]c(C)cc4c3F)ncnc2cc1OCCCCCC(=O)NO [Compound 13, 6-(4-(4-fluoro-2-methyl-1H-indol-5-ylamino)-6-methoxyquinazolin-7-yloxy)-N-hydroxyhexanamide] | < 100 | < 100 | < 100 |  | 
5 | COc1cc2c(Nc3ccc4[nH]c(C)cc4c3F)ncnc2cc1OCCCCCCC(=O)NO [Compound 14, 7-(4-(4-fluoro-2-methyl-1H-indol-5-ylamino)-6-methoxy-quinazolin-7-yloxy)-N-hydroxyheptanamide] | < 100 | 100 to 1000 | < 100 |  | 
6 | Cc1cc2c(F)c(Oc3ncnc4cc(OCCCN5CCCC5)c(OCCCCCC(=O)NO)cc34)ccc2[nH]1 [Compound 16, 6-(4-(4-fluoro-2-methyl-1H-indol-5-yloxy)-7-(3-(pyrrolidin-1-yl)propoxy)quinazolin-6-yloxy)-N-hydroxyhexanamide] | 100 to 1000 | < 100 | < 100 |  | 
7 | Cc1cc2c(F)c(Oc3ncnc4cc(OCCCN5CCCC5)c(OCCCCCCC(=O)NO)cc34)ccc2[nH]1 [Compound 17] | < 100 | 100 to 1000 | < 100 |  | 
8 | Cc1cc2c(F)c(Nc3ncnc4cc(OCCCN5CCCC5)c(OCCCCC(=O)NO)cc34)ccc2[nH]1 [Compound 18, 5-(4-(4-fluoro-2-methyl-1H-indol-5-ylamino)-7-(3-(pyrrolidin-1-yl)propoxy)quinazolin-6-yloxy)-N-hydroxypentanamide] | 100 to 1000 | < 100 | < 100 |  | 
9 | Cc1cc2c(F)c(Nc3ncnc4cc(OCCCN5CCCC5)c(OCCCCCC(=O)NO)cc34)ccc2[nH]1 [Compound 19, 6-(4-(4-Fluoro-2-methyl-1H-indol-5-ylamino)-7-(3-(pyrrolidin-1-yl)propoxy)quinazolin-6-yloxy)-N-hydroxyhexanamide] | 100 to 1000 | < 100 | < 100 |  | 
10 | Cc1cc2c(F)c(Nc3ncnc4cc(OCCCN5CCCC5)c(OCCCCCCC(=O)NO)cc34)ccc2[nH]1 [Compound 20, 7-(4-(4-Fluoro-2-methyl-1H-indol-5-ylamino)-7-(3-(pyrrolidin-1-yl)propoxy)quinazolin-6-yloxy)-N-hydroxyheptanamide] |  | < 100 | < 100 |  | 
